{"source": "paper PMC10066365", "about": "“Nemacol is a small molecule inhibitor of C. elegans vesicular acetylcholine transporter with anthelmintic potential” (Nature Communications, 2023)", "key": {"C. elegans [1]": {"test_system": "C. elegans", "assay": "C. elegans 3-day liquid viability assay, Nemacol-1 x Ivermectin matrix, wild type", "conditions": "for total animals normalized to corresponding controls: N2 wild type; for nemacol-1 x ivermectin matrix dose-response raw data: ivermectin 0 (row head 0), 3 replicate columns"}, "[2]": {"test_system": "Dirofilaria immitis microfilariae", "assay": "Dirofilaria immitis microfilariae motility (optical flow, ImageXpress/wrmXpress) and CellTox Green viability, second lab", "description": "We also conducted Dirofilaria immitis experiments in the lab of M. Zamanian (Univeristy of Wisconsin). For this experiment, shown in Supplementary Fig. 6, Microfilaremic blood was obtained from the NIH/NIAID Filariasis Research Reagent Resource Center (FR3)[70]. Blood was drawn and shipped approximately 24 h before use. Upon arrival, blood was warmed to 37 °C then combined with a 0.85% sodium chloride and 0.2% saponin solution in a 1:11 volumetric ratio and incubated in a 37 °C water bath for 15 min. The hemolyzed solution was passed through a 25 mm 5.0 μm pore size syringe filter. The used filter disks were transferred to petri dishes filled with RPMI 1640 culture media with 1% penicillin/streptomycin (0.1 mg/mL) and incubated at 37 °C for 2 h while microfilariae (mf) separated from the disks. Disks were discarded and mf titered to 5 mf/μL.\nAliquots of titered mf were incubated on a heating block at 60 °C for 1 h to produce heat killed positive controls. One μL of 100× drug was aliquoted to each well of a 96-well plate; 100 μL of live mf were added to treatment wells and 100 μL of heat killed mf were added to positive control wells (for a total of 500 mf/well). Plates were sealed with a breathable plate cover and maintained at 37 °C and 5% atmospheric CO2. […] Image analysis and the subsequent measurement of optical flow and fluorescence was performed using wrmXpress v1.3.02[71]. […]"}, "[3]": {"assay": "Motor phenotype time course on 60 μM Nemacol-1, EMB-8 disruption vs wild type", "type": "in vivo, Caenorhabditis elegans", "conditions": "N2, 60µM, count per bio rep"}, "[4]": {"test_system": "C. elegans emb-8(hc69); emb-8(RNAi)", "assay": "Motor phenotype time course on 60 μM Nemacol-1, EMB-8 disruption vs wild type", "type": "in vivo, Caenorhabditis elegans", "conditions": "for adult worms C1 (loose coil) / adult worms C2 (tight coil) / adult worms NP (no phene) / adult worms J (jerky-unc): count per bio rep"}, "C. elegans [5]": {"test_system": "C. elegans", "assay": "Motor phenotype time course on 60 μM Nemacol-1, EMB-8 disruption vs wild type", "type": "in vivo, Caenorhabditis elegans"}, "[6]": {"conditions": "Caenorhabditis elegans, read-out: C. elegans viability"}, "[7]": {"conditions": "N2, 60µM, 1h, average of 3 biological repeats"}, "[8]": {"conditions": "N2, 60µM, 4h, average of 3 biological repeats"}, "[9]": {"conditions": "N2, 60µM, 6h, average of 3 biological repeats"}, "[10]": {"conditions": "N2, 60µM, 24h, average of 3 biological repeats"}, "[11]": {"conditions": "emb-8, 60µM, 1h, average of 3 biological repeats"}, "[12]": {"conditions": "emb-8, 60µM, 4h, average of 3 biological repeats"}, "[13]": {"conditions": "emb-8, 60µM, 6h, average of 3 biological repeats"}, "[14]": {"conditions": "emb-8, 60µM, 24h, average of 3 biological repeats"}}, "note": "Several values for one entry are separate records, joined by “and”; a condition that tells them apart may be missing. Equal entries are not always repeated.", "data": [{"smiles": "O=[N+]([O-])c1ccc(N2CCN(CC3CCCCC3)CC2)cc1", "note": "[Nemacol-1]", "values": [{"measurement": "fold lowering of Ivermectin's EC50", "setting": "C. elegans [1]; 3-day viability, wild type", "result": 3, "unit": "fold"}, {"measurement": "viability at 15 µM", "setting": "C. elegans [1]; [6]", "result": 97, "unit": "%"}, {"measurement": "viability at 30 µM", "setting": "C. elegans [1]; [6]", "result": 97, "unit": "%"}, {"measurement": "viability at 60 µM", "setting": "C. elegans [1]; [6]", "result": 83, "unit": "%"}, {"measurement": "global ZIP synergy score", "setting": "C. elegans [1]; Ivermectin + Nemacol-1, wild type, threshold of synergy 10", "result": 20.0}, {"measurement": "total animals normalized to corresponding controls", "setting": "C. elegans [1]; nemacol-1 0.9375, ivermectin 0 uM", "result": 1.1}, {"measurement": "total animals normalized to corresponding controls", "setting": "C. elegans [1]; nemacol-1 1.875, ivermectin 0 uM", "result": 1.1}, {"measurement": "total animals normalized to corresponding controls", "setting": "C. elegans [1]; nemacol-1 3.75, ivermectin 0 uM", "result": 1.2}, {"measurement": "total animals normalized to corresponding controls", "setting": "C. elegans [1]; nemacol-1 7.5, ivermectin 0 uM", "result": 1.1}, {"measurement": "total animals normalized to corresponding controls", "setting": "C. elegans [1]; nemacol-1 15, ivermectin 0 uM", "result": 0.9}, {"measurement": "total animals normalized to corresponding controls", "setting": "C. elegans [1]; nemacol-1 30, ivermectin 0 uM", "result": 0.9}, {"measurement": "nemacol-1 x ivermectin matrix dose-response raw data", "setting": "C. elegans [1]; wt (N2) + 15 uM nemacol", "result": "100.0 and 76.7 and 84.0"}, {"measurement": "nemacol-1 x ivermectin matrix dose-response raw data", "setting": "C. elegans [1]; wt (N2) + 30 uM nemacol", "result": "102.1 and 93.3 and 70.0"}, {"measurement": "nemacol-1 x ivermectin matrix dose-response raw data", "setting": "C. elegans [1]; wt (N2) + 60 uM nemacol", "result": "119.1 and 66.7 and 70.0"}, {"measurement": "nemacol-1 x ivermectin matrix dose-response raw data", "setting": "C. elegans [1]; wt (N2) + 3.75 nemacol", "result": "102.1 and 150.0 and 114.0"}, {"measurement": "impact on IVM's ability to paralyze Dirofilaria", "setting": "[2]", "result": "no impact"}, {"measurement": "optical_flow", "setting": "[2]", "result": "64671429 and 95056554 and 124845938 and 124294468"}, {"measurement": "adult worms P (paralyzed)", "setting": "[3]; 6h", "result": 0}, {"measurement": "adult worms P (paralyzed)", "setting": "[3]; 24h", "result": 0}, {"measurement": "Fraction Coiled", "setting": "[4]; [7]", "result": 0.5185}, {"measurement": "Fraction Jerky-Unc", "setting": "[4]; [7]", "result": 0.2778}, {"measurement": "Fraction Parayzed", "setting": "[4]; [7]", "result": 0.2037}, {"measurement": "adult worms C1 (loose coil)", "setting": "[4]; N2, 60µM, 1h", "result": "4 and 3 and 5"}, {"measurement": "adult worms C2 (tight coil)", "setting": "[4]; N2, 60µM, 1h", "result": "6 and 4"}, {"measurement": "adult worms NP (no phene)", "setting": "[4]; N2, 60µM, 1h", "result": 0}, {"measurement": "Fraction Coiled", "setting": "[4]; N2, 60µM, 1h, per bio rep", "result": "0.5000 and 0.5556"}, {"measurement": "Fraction Coiled", "setting": "[4]; [8]", "result": 0.1111}, {"measurement": "Fraction Jerky-Unc", "setting": "[4]; [8]", "result": 0.2963}, {"measurement": "Fraction Parayzed", "setting": "[4]; [8]", "result": 0.0185}, {"measurement": "adult worms J (jerky-unc)", "setting": "[4]; N2, 60µM, 4h", "result": "7 and 5 and 4"}, {"measurement": "adult worms NP (no phene)", "setting": "[4]; N2, 60µM, 4h", "result": "7 and 14 and 10"}, {"measurement": "Fraction Jerky-Unc", "setting": "[4]; N2, 60µM, 4h, per bio rep", "result": "0.2222 and 0.3889 and 0.2778"}, {"measurement": "Fraction Coiled", "setting": "[4]; [9]", "result": 0.0556}, {"measurement": "Fraction Jerky-Unc", "setting": "[4]; [9]", "result": 0.2037}, {"measurement": "Fraction Parayzed", "setting": "[4]; [9]", "result": 0.0000}, {"measurement": "adult worms J (jerky-unc)", "setting": "[4]; N2, 60µM, 6h", "result": "3 and 5"}, {"measurement": "adult worms NP (no phene)", "setting": "[4]; N2, 60µM, 6h", "result": "15 and 10"}, {"measurement": "Fraction Jerky-Unc", "setting": "[4]; N2, 60µM, 6h, per bio rep", "result": "0.1667 and 0.2778"}, {"measurement": "Fraction Parayzed", "setting": "[4]; N2, 60µM, 6h, per bio rep", "result": 0.0000}, {"measurement": "Fraction Coiled", "setting": "[4]; [10]", "result": 0.0000}, {"measurement": "Fraction Jerky-Unc", "setting": "[4]; [10]", "result": 0.0000}, {"measurement": "Fraction Parayzed", "setting": "[4]; [10]", "result": 0.0000}, {"measurement": "adult worms C1 (loose coil)", "setting": "[4]; N2, 60µM, 24h", "result": 0}, {"measurement": "adult worms C2 (tight coil)", "setting": "[4]; N2, 60µM, 24h", "result": 0}, {"measurement": "adult worms J (jerky-unc)", "setting": "[4]; N2, 60µM, 24h", "result": 0}, {"measurement": "adult worms NP (no phene)", "setting": "[4]; N2, 60µM, 24h", "result": 18}, {"measurement": "Fraction Coiled", "setting": "[4]; N2, 60µM, 24h, per bio rep", "result": 0.0000}, {"measurement": "Fraction Jerky-Unc", "setting": "[4]; N2, 60µM, 24h, per bio rep", "result": 0.0000}, {"measurement": "Fraction Parayzed", "setting": "[4]; N2, 60µM, 24h, per bio rep", "result": 0.0000}, {"measurement": "Fraction Coiled", "setting": "[4]; [11]", "result": 0.5000}, {"measurement": "Fraction Jerky-Unc", "setting": "[4]; [11]", "result": 0.2778}, {"measurement": "Fraction Parayzed", "setting": "[4]; [11]", "result": 0.2222}, {"measurement": "adult worms C1 (loose coil)", "setting": "[4]; emb-8, 60µM, 1h", "result": "3 and 4"}, {"measurement": "adult worms C2 (tight coil)", "setting": "[4]; emb-8, 60µM, 1h", "result": "6 and 4"}, {"measurement": "adult worms J (jerky-unc)", "setting": "[4]; emb-8, 60µM, 1h", "result": "5 and 4 and 6"}, {"measurement": "adult worms NP (no phene)", "setting": "[4]; emb-8, 60µM, 1h", "result": 0}, {"measurement": "Fraction Coiled", "setting": "[4]; emb-8, 60µM, 1h, per bio rep", "result": "0.5556 and 0.5000 and 0.4444"}, {"measurement": "Fraction Jerky-Unc", "setting": "[4]; emb-8, 60µM, 1h, per bio rep", "result": "0.3333 and 0.2778 and 0.2222"}, {"measurement": "Fraction Coiled", "setting": "[4]; [12]", "result": 0.1481}, {"measurement": "Fraction Jerky-Unc", "setting": "[4]; [12]", "result": 0.3889}, {"measurement": "Fraction Parayzed", "setting": "[4]; [12]", "result": 0.4630}, {"measurement": "adult worms NP (no phene)", "setting": "[4]; emb-8, 60µM, 4h", "result": 0}, {"measurement": "Fraction Coiled", "setting": "[4]; [13]", "result": 0.3704}, {"measurement": "Fraction Jerky-Unc", "setting": "[4]; [13]", "result": 0.2778}, {"measurement": "Fraction Parayzed", "setting": "[4]; [13]", "result": 0.3519}, {"measurement": "adult worms C2 (tight coil)", "setting": "[4]; emb-8, 60µM, 6h", "result": "4 and 3"}, {"measurement": "adult worms NP (no phene)", "setting": "[4]; emb-8, 60µM, 6h", "result": 0}, {"measurement": "Fraction Coiled", "setting": "[4]; [14]", "result": 0.2963}, {"measurement": "Fraction Jerky-Unc", "setting": "[4]; [14]", "result": 0.2222}, {"measurement": "Fraction Parayzed", "setting": "[4]; [14]", "result": 0.4815}, {"measurement": "adult worms NP (no phene)", "setting": "[4]; emb-8, 60µM, 24h", "result": 0}, {"measurement": "Fraction Coiled", "setting": "[4]; emb-8, 60µM, 24h, per bio rep", "result": "0.3333 and 0.2222"}, {"measurement": "Fraction No Phenotype", "setting": "C. elegans [5]; [7]", "result": 0.0000}, {"measurement": "Fraction No Phenotype", "setting": "C. elegans [5]; N2, 60µM, 1h, per bio rep", "result": 0.0000}, {"measurement": "Fraction No Phenotype", "setting": "C. elegans [5]; [8]", "result": 0.5741}, {"measurement": "Fraction No Phenotype", "setting": "C. elegans [5]; N2, 60µM, 4h, per bio rep", "result": "0.3889 and 0.5556 and 0.7778"}, {"measurement": "Fraction No Phenotype", "setting": "C. elegans [5]; [9]", "result": 0.7407}, {"measurement": "Fraction No Phenotype", "setting": "C. elegans [5]; N2, 60µM, 6h, per bio rep", "result": "0.8333 and 0.5556"}, {"measurement": "Fraction No Phenotype", "setting": "C. elegans [5]; [10]", "result": 1.0000}, {"measurement": "Fraction No Phenotype", "setting": "C. elegans [5]; N2, 60µM, 24h, per bio rep", "result": 1.0000}, {"measurement": "Fraction No Phenotype", "setting": "C. elegans [5]; [11]", "result": 0.0000}, {"measurement": "Fraction No Phenotype", "setting": "C. elegans [5]; emb-8, 60µM, 1h, per bio rep", "result": 0.0000}, {"measurement": "Fraction No Phenotype", "setting": "C. elegans [5]; [12]", "result": 0.0000}, {"measurement": "Fraction No Phenotype", "setting": "C. elegans [5]; emb-8, 60µM, 4h, per bio rep", "result": 0.0000}, {"measurement": "Fraction No Phenotype", "setting": "C. elegans [5]; [13]", "result": 0.0000}, {"measurement": "Fraction No Phenotype", "setting": "C. elegans [5]; emb-8, 60µM, 6h, per bio rep", "result": 0.0000}, {"measurement": "Fraction No Phenotype", "setting": "C. elegans [5]; [14]", "result": 0.0000}, {"measurement": "Fraction No Phenotype", "setting": "C. elegans [5]; emb-8, 60µM, 24h, per bio rep", "result": 0.0000}]}]}
